Publication PMC9929232, “On-demand male contraception via acute inhibition of soluble adenylyl cyclase” (Nature Communications, 2023)
“And” between values parts separate entries of the source, which are not always exact repeats. Equal entries are not always repeated.

What was measured:
human sperm [1] = assay: cAMP generation in human sperm in vitro, incl. wash-out by dilution; assay type: cell-based; conditions: 30 minutes
Method: Samples of human semen were obtained from healthy volunteers with their prior written consent following a protocol approved by Weill Cornell Medicine’s Institutional Review Board (IRB 21-03023495). […] Semen was incubated for 30 min in a 37 °C incubator to liquefy. […] The tubes were incubated at a tilted angle of 45° at 37 °C for 60 min. Motile sperm were allowed to swim up into the HTF layer; immotile sperm and other cells or tissue debris remain in the ejaculate fraction. Up to 3 ml of the HTF layer was transferred to a fresh tube and washed twice in HTF by centrifugation (700 × g, 20 min). The supernatant was removed after the last centrifugation step and the sperm pellet was resuspended in 1 ml HTF. The purity and vitality of each sample was assessed via light microscopy. Sperm cell numbers were determined using a hemocytometer and adjusted to a concentration of 1 × 10^7 cells/ml.

mouse sperm [2] = assay: Flagellar beat frequency of tethered mouse sperm; assay type: cell-based
Method: (§1) An inverted dark-field video microscope (IX73; Olympus) with a 10 x objective (mouse sperm) or a 20 x objective (human sperm) (UPLSAPO, NA 0.8; Olympus) was combined with a high-speed camera (ORCA Fusion; Hamamatsu). Dark-field videos were recorded with a frame rate of 200 Hz. The temperature of the heated stage was set to 37 °C (stage top incubator WSKMX; TOKAI HIT). The images were preprocessed with the ImageJ plugin SpermQ Preparator (Gaussian blur with sigma 0.5 px; subtract background method with radius 5 px) and analyzed using the ImageJ plugin SpermQ[57]. The beat frequency was determined from the highest peak in the frequency spectrum of the curvature time course, obtained by Fast Fourier Transform.

human sperm [3] = assay: Flagellar beat frequency of tethered human sperm; assay type: cell-based
Method: as §1

mouse sperm [4] = assay: Acrosome reaction assay, mouse sperm, zona pellucidae-evoked; assay type: cell-based; conditions: Fig. 2g replicates, 5 μM TDI-10229 or 10 nM TDI-11861
Method: Zonae pellucidae were isolated from female mice superovulated by intraperitoneal injection of 10 I.U. […] 3 days before the experiment. 14 h before oocyte isolation, mice were injected with 10 I.U. pregnant mare’s serum gonadotropin. Mice were sacrificed by cervical dislocation and oviducts were dissected. Cumulus-enclosed oocytes were separated from the oviducts and placed into TYH buffer containing 300 μg/ml hyaluronidase. After 15 min, cumulus-free oocytes were transferred into fresh buffer and washed twice. Zonae pellucidae and oocytes were separated by shear forces generated by expulsion from […] pasteur pipettes. Zona pellucidae were counted, transferred into fresh buffer, and heat-solubilized by incubation for 10 min at 65 °C.
(§2) Acrosome reaction was induced by incubating mouse sperm with 50 mouse solubilized zonae pellucidae for 15 min at 37 °C. Human sperm were incubated with 10 μM progesterone for 30 min at 37 °C. […] Samples were air-dried on microscope slides and fixed for 30 minutes in 100% ethanol at room temperature (RT). For acrosome staining, mouse and human sperm were incubated for 30 min in the dark with 5 μg/ml PNA-FITC or 5 μg/ml PSA-FITC, respectively, and counterstained with 2 μg/ml DAPI. After curing, slides were analyzed using a Zeiss LSM 880 Laser Scanning Confocal Microscope; images were captured with two photomultiplier and one Gallium Arsenide Phosphide detector using ZEN Imaging software. For each condition, at least 600 cells were analyzed using ImageJ 1.52.

human sperm [5] = assay: Acrosome reaction assay, human sperm, progesterone-evoked; assay type: cell-based; conditions: Fig. 2h replicates, 5 μM TDI-10229 or 10 nM TDI-11861
Method: as §2

epididymal mouse sperm [6] = assay: Ex vivo motility (CASA) of epididymal sperm from inhibitor-treated male mice; assay type: in vivo
Method: Sperm movements of 10 fields of at least 200 sperm were examined using computer-assisted sperm analysis (CASA) via Hamilton–Thorne digital image analyzer (IVOS II, Hamilton Thorne Research, Beverly, MA) with the following parameters: 30 frames, frame rate: 60 Hz, cell size: 30–170 μm^2. Ejaculated uterine mouse sperm were recorded without additional dilution. Sperm were considered motile when presenting STR ≥80% and VAP ≥50 μm/s and hyperactivated when presenting VCL ≥270 μm/s, LIN < 50%, and ALH ≥7 μm. Track´s color code: motile (green), progressive (turquoise), hyperactivated (purple), slow (pink), static (red), not counted due to late entry (yellow).

mouse sperm [7] = assay: cAMP generation in mouse sperm in vitro, incl. wash-out by dilution; conditions: 12 minutes
Method: For capacitation, sperm were incubated for 90 min in TYH containing 3 mg/ml BSA and 25 mM NaHCO3 in a 37 °C incubator. To control for the consequences of dilution during isolation of epididymal mouse sperm for ex vivo assays, we assessed the ability of bicarbonate to induce a prototypical pattern of tyrosine phosphorylation (pY) which is a widely used molecular hallmark of capacitation[53]. Bicarbonate-induced pY is known to be sAC dependent in vitro[20],[22],[35]. For experiments studying sperm from injected mice, ‘swim out’ was performed in 200 μl TYH, which corresponded to a 1:10 dilution from epididymis (20 μg cauda in 200 μl buffer). Capacitation-induced changes were assessed by adding 50 µl of ‘swim out’ sperm to increasing volumes of capacitating TYH buffer.
cAMP generation was measured in mouse and human sperm. […] For human sperm, aliquots of 2 × 10^6 cells were incubated for 30 min in the presence or absence of sAC inhibitor in non-capacitating or capacitating HTF buffer. In both cases, 0.1% DMSO was used as vehicle control.
After 5 min, 150 µl of sperm/inhibitor mix was diluted into 1.35 ml non-capacitating or capacitating media with no inhibitor. […] Sperm lysates were centrifuged at 2000 × g for 3 min and the cAMP in the supernatant was acetylated and quantified using the Direct cAMP ELISA kit (Enzo).

epididymal mouse sperm [8] = assay: Tyrosine phosphorylation (pY) Western blot of sperm from injected mice; conditions: for capacitation-induced pY pattern: 50 mg/kg i.p., 1 hour
Method: For capacitation, sperm were incubated for 90 min in TYH containing 3 mg/ml BSA and 25 mM NaHCO3 in a 37 °C incubator. To control for the consequences of dilution during isolation of epididymal mouse sperm for ex vivo assays, we assessed the ability of bicarbonate to induce a prototypical pattern of tyrosine phosphorylation (pY) which is a widely used molecular hallmark of capacitation[53]. […] For experiments studying sperm from injected mice, ‘swim out’ was performed in 200 μl TYH, which corresponded to a 1:10 dilution from epididymis (20 μg cauda in 200 μl buffer). Capacitation-induced changes were assessed by adding 50 µl of ‘swim out’ sperm to increasing volumes of capacitating TYH buffer.
Mouse sperm from vehicle- or inhibitor-injected mice were isolated 1 hour post injection from male mice injected (i.p.) with 150 µl of solution containing sAC inhibitor or vehicle. ‘Swim out’ sperm were diluted 1:1 to 1:100 in capacitating TYH media. As control, sperm from vehicle-injected mice were diluted 1:100 in non-capacitating and capacitating TYH buffer. The samples were incubated for 90 min, washed with 1 ml PBS and sedimented by centrifugation at 2000 × g for 3 min. The sedimented sperm were resuspended in 15 μl 2× Laemmli sample buffer, heated for 5 min at 95 °C, supplemented with 8 µl β-mercaptoethanol and heated again for 5 min at 95 °C. For Western blot analysis, proteins were transferred onto PVDF membranes (Thermo Scientific), probed with anti-phosphotyrosine (1:1000, clone 4G10, Merck Millipore) and anti-mouse IgG (1:10,000, Cell Signaling Technology) antibodies, and analyzed using a chemiluminescence detection system. Image lab (Bio-Rad) was used for densitometric analysis of western blots.

[9] = sheet Fig. 2c replicates, 5 μM TDI-10229 or 10 nM TDI-11861 present
[10] = sheet Fig. 2d replicates, 5 min preincubation in 5 μM TDI-10229 or 10 nM TDI-11861, diluted 1:100 into inhibitor-free media
[11] = sheet Fig. 2a replicates, 5 μM TDI-10229 or 10 nM TDI-11861 present
[12] = sheet Fig. 2b replicates, 5 min preincubation in 5 μM TDI-10229 or 10 nM TDI-11861, diluted 1:100 into inhibitor-free media

SMILES: Cc1c(Cc2ccccc2)c(-c2cc(Cl)nc(N)n2)nn1C [TDI-10229, reference compound]
- cAMP, capacitation media (human sperm [1]; [9]): 0.877 pmol/10^6 sperm and 0.67 pmol/10^6 sperm and 0.652 pmol/10^6 sperm and 0.78 pmol/10^6 sperm and 1.141 pmol/10^6 sperm and 0.8484 pmol/10^6 sperm and 1.0045 pmol/10^6 sperm
- cAMP, non-capacitation media (human sperm [1]; [9]): 0.136 pmol/10^6 sperm and 0.12 pmol/10^6 sperm and 0.2 pmol/10^6 sperm and 0.75 pmol/10^6 sperm and 0.55 pmol/10^6 sperm and 0.7798 pmol/10^6 sperm and 0.493 pmol/10^6 sperm
- cAMP, capacitation media (human sperm [1]; [10]): 1.0484 pmol/10^6 sperm and 0.9036 pmol/10^6 sperm and 1.37 pmol/10^6 sperm and 1.1895 pmol/10^6 sperm and 1.866 pmol/10^6 sperm
- cAMP, non-capacitation media (human sperm [1]; [10]): 0.7172 pmol/10^6 sperm and 0.3596 pmol/10^6 sperm and 1.05 pmol/10^6 sperm and 0.7885 pmol/10^6 sperm and 1.206 pmol/10^6 sperm
- Beat frequency, Basal (mouse sperm [2]; distal 10 μm of flagellum, 5 μM TDI-10229 or 10 nM TDI-11861, mean ± SEM): 10.4 ± 0.8 Hz
- Beat frequency, + HCO3- (mouse sperm [2]; distal 10 μm, 25 mM NaHCO3, 5 μM TDI-10229 or 10 nM TDI-11861, mean ± SEM): 11.7 ± 1.8 Hz
- Beat frequency, Basal (human sperm [3]; distal 5 µm of flagellum, 5 μM TDI-10229 or 10 nM TDI-11861, mean ± SEM): 12.2 ± 0.8 Hz
- Beat frequency, + HCO3- (human sperm [3]; distal 5 µm, 25 mM NaHCO3, 5 μM TDI-10229 or 10 nM TDI-11861, mean ± SEM): 14.5 ± 0.6 Hz
- Acrosome reacted (%), basal + db-cAMP/IBMX (mouse sperm [4]; 5 mM db-cAMP/500 μM IBMX): 27.72% and 28.24% and 29.05% and 27.83% and 24.06%
- Acrosome reacted (%), ZP (mouse sperm [4]; 50 heat-solubilized zona pellucidae): 22.4% and 26.2% and 28.2% and 15.6% and 20%
- Acrosome reacted (%), basal (mouse sperm [4]; 90 min capacitating media): 20.3% and 33.8% and 26.7% and 16.5% and 28%
- Acrosome reacted (%), ZP + db-cAMP/IBMX (mouse sperm [4]; zona pellucidae, 5 mM db-cAMP/500 μM IBMX): 32% and 38.6% and 36.8% and 38% and 41.8%
- Acrosome reacted (%), Prog (human sperm [5]; 10 μM progesterone): 8% and 18.1667% and 7.5% and 9% and 9.5% and 17.6667% and 10%
- Acrosome reacted (%), Prog + db-cAMP/IBMX (human sperm [5]; 10 μM progesterone, 5 mM db-cAMP/500 μM IBMX): 23% and 28.6636% and 15.5% and 15% and 16% and 30.6613% and 17.1667%
- Acrosome reacted (%), basal + db-cAMP/IBMX (human sperm [5]; 5 mM db-cAMP/500 μM IBMX): 8.5% and 15.8333% and 7.5% and 6.5% and 7% and 21.8333% and 11.3333%
- Acrosome reacted (%), basal (human sperm [5]; 180 min capacitating media): 6% and 15.1667% and 8% and 7% and 7.5% and 16.3548% and 6.667%
- motility of epididymal sperm diluted ex vivo (epididymal mouse sperm [6]; 50 mg/kg oral): motile and indistinguishable from sperm from vehicle-treated mice
- motility (%) (epididymal mouse sperm [6]; Fig. 3b replicates, 50 mg/kg oral gavage, 1 hour, diluted 1:100 in inhibitor-free non-capacitating media, CASA, 50 mg/kg): 34.7% and 36.8% and 35.1% and 36.4% and 29.7% and 32.4% and 30.6% and 26% and 32% and 33.4% and 29.4%
- motility (%) (epididymal mouse sperm [6]; Fig. 3d, individual replicates): 19.9% and 28.3% and 25% and 29.5% and 30.2% and 35.4% and 40.7% and 41.4% and 42.3%
- cAMP, capacitation media (mouse sperm [7]; [11]): 0.708 pmol/10^6 sperm and 0.223 pmol/10^6 sperm and 0.8377 pmol/10^6 sperm and 0.328 pmol/10^6 sperm and 0.317 pmol/10^6 sperm and 0.164 pmol/10^6 sperm and 0.248 pmol/10^6 sperm and 0.209 pmol/10^6 sperm and 0.814 pmol/10^6 sperm and 0.028 pmol/10^6 sperm
- cAMP, non-capacitation media (mouse sperm [7]; [11]): 0.791 pmol/10^6 sperm and 0.172 pmol/10^6 sperm and 0.69 pmol/10^6 sperm and 0.464 pmol/10^6 sperm and 0.354 pmol/10^6 sperm and 0.286 pmol/10^6 sperm and 0.57 pmol/10^6 sperm and 0.578 pmol/10^6 sperm and 1.32 pmol/10^6 sperm and 0.473 pmol/10^6 sperm
- cAMP, capacitation media (mouse sperm [7]; [12]): 0.7514 pmol/10^6 sperm and 0.838 pmol/10^6 sperm and 0.907 pmol/10^6 sperm and 0.4366 pmol/10^6 sperm and 0.08556 pmol/10^6 sperm and 0.441 pmol/10^6 sperm and 0.751 pmol/10^6 sperm and 1.195 pmol/10^6 sperm
- cAMP, non-capacitation media (mouse sperm [7]; [12]): 0.7446 pmol/10^6 sperm and 0.94 pmol/10^6 sperm and 1.147 pmol/10^6 sperm and 0.8426 pmol/10^6 sperm and 0.7363 pmol/10^6 sperm and 0.601 pmol/10^6 sperm and 0.752 pmol/10^6 sperm and 1.525 pmol/10^6 sperm
- capacitation-induced pY pattern (epididymal mouse sperm [8]; diluted 25 fold): restored
- capacitation-induced pY pattern (epididymal mouse sperm [8]; swim out sperm mixed with equal volume capacitation media): blocked
- normalized pY (epididymal mouse sperm [8]; Fig. S1f, 1:1 capacitating media): 1.44 and 0.9739 and 0.9492 and 1.269 and 0.7377 and 0.8308 and 0.9909 and 0.9583
- normalized pY (epididymal mouse sperm [8]; Fig. S1f, 1:5 capacitating media): 1.231 and 0.8896 and 0.8967 and 1.293 and 1.015 and 0.7938 and 1.073 and 0.7598
- normalized pY (epididymal mouse sperm [8]; Fig. S1f, 1:10 capacitating media): 1.238 and 0.8061 and 0.8834 and 1.18 and 1.244 and 0.7753 and 1.106 and 0.8286
- normalized pY (epididymal mouse sperm [8]; Fig. S1d, 1:1 capacitating media): 1.323 and 2.451 and 1.717 and 1.956
- normalized pY (epididymal mouse sperm [8]; Fig. S1d, 1:5 capacitating media): 1.566 and 2.38 and 1.568 and 1.6103
- normalized pY (epididymal mouse sperm [8]; Fig. S1d, 1:10 capacitating media): 1.95 and 2.076 and 2.342 and 1.601
- normalized pY (epididymal mouse sperm [8]; Fig. S1d, 1:25 capacitating media): 1.653 and 2.642 and 2.388
- normalized pY (epididymal mouse sperm [8]; Fig. S1d, 1:50 capacitating media): 1.946 and 2.557 and 2.122 and 1.827
- normalized pY (epididymal mouse sperm [8]; Fig. S1d, 1:100 capacitating media): 1.953 and 2.689 and 1.737 and 1.751
